Test results published in patent US20190375708A1 (VenatoRx Pharmaceuticals, Inc., priority 2018, published 2019).

Key:
[1] = tested on: HBV replication in HepAD38 cells; assay: Anti-HBV replication assay in HepAD38 cells (QPCR of extracellular HBV DNA); assay type: cell-based, HBV (genotype D, serotype ayw); conditions: Hepatitis B virus, 168 h, 7 days incubation, extracellular HBV DNA by QPCR, read-out: Anti-HBV EC50
In short: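 Tet-off HepAD38, 7-day compound exposure ([…], 1 log10 steps, DMSO vehicle), 37 °C. Extracellular HBV DNA by QPCR, copies/mL via standard curve, % inhibition vs vehicle, EC50 by 4-parameter regression. Entecavir as positive control.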

[2] = In vitro cytotoxicity assay (MTT cell viability) in HepG2 cells; assay type: cell-based, human; conditions: human
In short: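 Read-out: MTT formazan absorbance at 492 nm, expressed as % of vehicle signal; CC50 by 4-parameter non-linear regression. Parental HepG2, 20,000 cells/well, treated 7 days with compound from 30 μM down to 1.0 nM.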

SMILES | EC50 [1] | CC50 at 7 days [2]
CC[C@@H](CO)NC(=O)C(=O)c1c(C)c(C(=O)Nc2ccc(F)c(C)c2)c(C)n1CCF [Example 180, (S)-N-(4-fluoro-3-methylphenyl)-1(2-fluoroethyl)-5-(2-((1-hydroxybutan-2-yl)amino)-2-oxoacetyl)-2,4-dimethyl-1H-pyrrole-3-carboxamide] | < 50 nM | 5000 to 30000 nM
Cc1cc(NC(=O)c2c(C)c(C(=O)C(=O)NC(C)(C)C(N)=O)n(C)c2C)ccc1F [Example 36, 5-(2-((1-amino-2-methyl-1-oxopropan-2-yl)amino)-2-oxoacetyl)-N-(4-fluoro-3-methylphenyl)-1,2,4-trimethyl-1H-pyrrole-3-carboxamide] | < 50 nM | > 30000 nM
Cc1cc(NC(=O)c2c(C)c(C(=O)C(=O)NC(C)CN3CCOCC3)n(C)c2C)ccc1F (stereo not drawn) [Example 290, N-(4-fluoro-3-methylphenyl)-1,2,4-trimethyl-5-(2-((1-morpholinopropan-2-yl)amino)-2-oxoacetyl)-1H-pyrrole-3-carboxamide] | < 50 nM | > 30000 nM
Cc1cc(NC(=O)c2c(Cl)c(C(=O)C(=O)NCc3cnc(N)s3)n3c2CCCC3)ccc1F [Example 503, 3-(2-(((2-aminothiazol-5-yl)methyl)amino)-2-oxoacetyl)-2-chloro-N-(4-fluoro-3-methylphenyl)-5,6,7,8-tetrahydroindolizine-1-carboxamide] | < 50 nM | > 30000 nM
Cc1cc(NC(=O)c2c(C)c(C(=O)C(=O)N[C@H]3CC[C@](O)(C(F)(F)F)CC3)n(C)c2C)ccc1F [Example 221, N-(4-fluoro-3-methylphenyl)-5-(2-(((1s,4s)-4-hydroxy-4-(trifluoromethyl)cyclohexyl)amino)-2-oxoacetyl)-1,2,4-trimethyl-1H-pyrrole-3-carboxamide] | < 50 nM | 5000 to 30000 nM
Cc1cc(NC(=O)c2c(C)c(C(=O)C(=O)NC3(CO)CCC3)n3c2CCCC3)ccc1F [Example 442, N-(4-fluoro-3-methylphenyl)-3-(2-((1-(hydroxymethyl)cyclobutyl)amino)-2-oxoacetyl)-2-methyl-5,6,7,8-tetrahydroindolizine-1-carboxamide] | < 50 nM | 5000 to 30000 nM
Cc1csc(NC(=O)C(=O)c2c(C)c(C(=O)Nc3cnc(F)c(C)c3)c(C)n2C)n1 [Example 342, N-(6-fluoro-5-methylpyridin-3-yl)-1,2,4-trimethyl-5-(2-((4-methylthiazol-2-yl)amino)-2-oxoacetyl)-1H-pyrrole-3-carboxamide] | 500 to 1000 nM | > 30000 nM
Cc1cc(NC(=O)c2c(C)c(C(=O)C(=O)NC3CCN(c4cccnn4)CC3)n(C)c2C)ccc1F [Example 660, N-(4-fluoro-3-methylphenyl)-1,2,4-trimethyl-5-(2-oxo-2-((1-(pyridazin-3-yl)piperidin-4-yl)amino)acetyl)-1H-pyrrole-3-carboxamide] | < 50 nM | > 30000 nM
Cc1cc(NC(=O)c2c(Cl)c(C(=O)C(=O)N[C@H]3COC[C@@H]3O)n3c2CCCC3)ccc1F [Example 505, 2-chloro-N-(4-fluoro-3-methylphenyl)-3-(2-(((3S,4R)-4-hydroxytetrahydrofuran-3-yl)amino)-2-oxoacetyl)-5,6,7,8-tetrahydroindolizine-1-carboxamide] | 500 to 1000 nM | > 30000 nM
Cc1cc(NC(=O)c2c(C)c(C(=O)C(=O)N[C@@H]3CC[C@@H](O)[C@@H]3O)n(CCF)c2C)ccc1F [Example 197] | 50 to 499 nM | > 30000 nM
Cc1cc(NC(=O)c2c(C)c(C(=O)C(=O)NC3CCN(C4CCSCC4)CC3)n(C)c2C)ccc1F [Example 654, N-(4-fluoro-3-methylphenyl)-1,2,4-trimethyl-5-(2-oxo-2-((1-(tetrahydro-2H-thiopyran-4-yl)piperidin-4-yl)amino)acetyl)-1H-pyrrole-3-carboxamide] | < 50 nM | > 30000 nM
Cc1cc(NC(=O)c2c(C)c(C(=O)C(=O)NC(C)(C)c3noc(CN(C)C)n3)n(C)c2C)ccc1F [Example 154, 5-(2-((2-(5-((dimethylamino)methyl)-1,2,4-oxadiazol-3-yl)propan-2-yl)amino)-2-oxoacetyl)-N-(4-fluoro-3-methylphenyl)-1,2,4-trimethyl-1H-pyrrole-3-carboxamide] | < 50 nM | > 30000 nM
Cc1c(C(=O)Nc2ccc(F)c(Cl)c2)c(C)n(C)c1C(=O)C(=O)Nc1ccc(F)c(F)c1 [Example 313] | < 50 nM | 5000 to 30000 nM
CNC(=O)[C@H](NC(=O)C(=O)c1c(C)c(C(=O)Nc2ccc(F)c(C)c2)c(C)n1C)[C@@H](C)O [Example 62, N-(4-fluoro-3-methylphenyl)-5-(2-(((2R,3R)-3-hydroxy-1-(methylmaino)-1-oxobutan-2-yl)amino)-2-oxoacetyl)-1,2,4-trimethyl-1H-pyrrole-3-carboxamide] | < 50 nM | > 30000 nM
Cc1c(C(=O)Nc2ccc(F)nc2)c(C)n(C)c1C(=O)C(=O)NC1(C(N)=O)CCCCC1 [Example 93, 5-(2-((1-carbamoylcyclohexyl)amino)-2-oxoacetyl)-N-(6-fluoropyridin-3-yl)-1,2,4-trimethyl-1H-pyrrole-3-carboxamide] | 50 to 499 nM | > 30000 nM
C#CCNC(=O)C(=O)c1c(C)c(C(=O)Nc2ccc(F)c(C)c2)c(C)n1C [Example 275, N-(4-fluoro-3-methylphenyl)-1,2,4-trimethyl-5-(2-oxo-2-(prop-2-yn-1-ylamino)acetyl)-1H-pyrrole-3-carboxamide] | < 50 nM | > 30000 nM
Cc1cc(NC(=O)c2c(C)c(C(=O)C(=O)NC3(CO)CC(F)(F)C3)n3c2CCCC3)ccc1F [Example 441, 3-(2-((3,3-difluoro-1-(hydroxymethyl)cyclobutyl)amino)-2-oxoacetyl)-N-(4-fluoro-3-methylphenyl)-2-methyl-5,6,7,8-tetrahydroindolizine-1-carboxamide] | < 50 nM | 5000 to 30000 nM
CC(C)(CO)NC(=O)C(=O)c1cc(C(=O)Nc2ccc(F)c(F)c2)c2n1CCCC2 [Example 426, N-(3,4-difluorophenyl)-3-(2-((1-hydroxy-2-methylpropan-2-yl)amino)-2-oxoacetyl)-5,6,7,8-tetrahydroindolizine-1-carboxamide] | 50 to 499 nM | > 30000 nM
Cc1c(C(=O)Nc2ccc(F)c(Cl)c2)c2n(c1C(=O)C(=O)NCC(C)(C)CO)CCCC2 [Example 466, N-(3-chloro-4-fluorophenyl)-3-(2-((3-hydroxy-2,2-dimethylpropyl)amino)-2-oxoacetyl)-2-methyl-5,6,7,8-tetrahydroindolizine-1-carboxamide] | 50 to 499 nM | > 30000 nM
Cc1cc(NC(=O)c2cc(C(=O)C(=O)NC(C)(C)C)n3c2CN(S(C)(=O)=O)CC3)ccc1F [Example 589, 6-(2-(tert-butylamino)-2-oxoacetyl)-N-(4-fluoro-3-methylphenyl)-2-(methylsulfonyl)-1,2,3,4-tetrahydropyrrolo[1,2-a]pyrazine-8-carboxamide] | 500 to 1000 nM | > 30000 nM
Cc1c(C(=O)Nc2cccc(C(F)F)c2)c(C)n(C)c1C(=O)C(=O)N[C@@H]1CCC[C@@H](O)C1 [Example 704, N-(3-(difluoromethyl)phenyl)-5-(2-(((1R,3R)-3-hydroxycyclohexyl)amino)-2-oxoacetyl)-1,2,4-trimethyl-1H-pyrrole-3-carboxamide] | < 50 nM | > 30000 nM
Cc1cc(NC(=O)c2c(C)c(C(=O)C(=O)N[C@@H](C(=O)O)C(C)C)n(C)c2C)ccc1F [Example 101, (2-(4-((4-fluoro-3-methylphenyl)carbamoyl)-1,3,5-trimethyl-1H-pyrrol-2-yl)-2-oxoacetyl)-D-valine] | > 1000 nM | 5000 to 30000 nM
CCn1c(C)c(C(=O)Nc2ccc(F)c(C)c2)c(C)c1C(=O)C(=O)NC(C)(C)C(N)=O [Example 99, 5-(2-((1-amino-2-methyl-1-oxopropan-2-yl)amino)-2-oxoacetyl)-1-ethyl-N-(4-fluoro-3-methylphenyl)-2,4-dimethyl-1H-pyrrole-3-carboxamide] | 50 to 499 nM | > 30000 nM
Cc1c(C(=O)Nc2cccc(C(F)F)c2)c(C)n(C)c1C(=O)C(=O)N[C@]1(C)C[C@H](O)C1 [Example 705, N-(3-(difluoromethyl)phenyl)-5-(2-(((1s,3s)-3-hydroxy-1-methylcyclobutyl)amino)-2-oxoacetyl)-1,2,4-trimethyl-1H-pyrrole-3-carboxamide] | < 50 nM | > 30000 nM
Cc1c(C(=O)Nc2ccc(F)c(F)c2)c(C)n(C)c1C(=O)C(=O)NC12CCC(O)(CC1)CC2 [Example 335, N-(3,4-difluorophenyl)-5-(2-((4-hydroxybicyclo[2.2.2]octan-1-yl)amino)-2-oxoacetyl)-1,2,4-trimethyl-1H-pyrrole-3-carboxamide] | < 50 nM | > 30000 nM
O=C(NC1(CO)CCC1)C(=O)c1c(Cl)c(C(=O)Nc2ccc(F)c(F)c2)c2n1CCCC2 [Example 499, 2-chloro-N-(3,4-difluorophenyl)-3-(2-((1-(hydroxymethyl)cyclobutyl)amino)-2-oxoacetyl)-5,6,7,8-tetrahydroindolizine-1-carboxamide] | < 50 nM | > 30000 nM
Cc1cc(NC(=O)c2c(C)c(C(=O)C(=O)NC3(C(F)(F)F)CC3)n(C)c2C)cnc1F [Example 234, N-(6-fluoro-5-methylpyridin-3-yl)-1,2,4-trimethyl-5-(2-oxo-2-((1-(trifluoromethyl)cyclopropyl)amino)acetyl)-1H-pyrrole-3-carboxamide] | < 50 nM | > 30000 nM
